Laboratory results from patent US11472776B2, “Quinazolinones that inhibit the formation of tau oligomers and their method of use” (OLIGOMERIX INC., priority 2016, dated 2022).
Structures can show the parent of a compound that is named as a salt.

Columns and labels:
[1] = target: T1, recombinant human tau 4R2N (Homo sapiens (Human), UniProt P10636); assay: AlphaLisa Assay (ALA), primary screen for inhibition of tau oligomer formation; type: biochemical; conditions: tau target 300 nM, 4 hours at room temperature, compound 0.098 uM-50 uM
T1 sequence (P10636 other isoform, or with tags, fused parts or gaps): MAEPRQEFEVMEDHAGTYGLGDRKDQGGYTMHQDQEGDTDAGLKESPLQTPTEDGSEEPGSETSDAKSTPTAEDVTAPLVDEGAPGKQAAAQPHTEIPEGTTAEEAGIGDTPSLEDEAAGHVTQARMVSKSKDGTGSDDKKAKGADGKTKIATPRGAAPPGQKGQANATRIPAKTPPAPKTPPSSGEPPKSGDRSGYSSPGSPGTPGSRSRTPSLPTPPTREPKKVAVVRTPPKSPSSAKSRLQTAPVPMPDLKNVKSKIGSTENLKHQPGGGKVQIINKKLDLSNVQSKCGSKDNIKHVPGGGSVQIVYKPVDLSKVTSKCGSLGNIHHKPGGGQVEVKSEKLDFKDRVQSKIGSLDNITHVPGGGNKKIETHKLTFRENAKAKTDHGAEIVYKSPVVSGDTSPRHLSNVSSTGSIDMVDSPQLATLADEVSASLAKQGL
Source text: (§1) Bacterial recombinant human tau 4R2N (the largest isoform of tau in the central nervous system, 441 amino acids in length, Seq. ID 1) constructs with either 6×-His or StrepII N-terminal epitope tags were purified from bacterial lysate using denaturing conditions to prepare tau in its monomeric form.
ALA Assay: AlphaLisa Assay (ALA) was used as a primary screen for identifying compounds that inhibit tau oligomer formation. It is a bead based assay that only gives signal when the beads are in close proximity to each other. When the tau monomer (target) is incubated it forms higher order aggregates (dimer, trimer, tetramer, etc) so that when the donor and acceptor beads bind to the epitope tags of tau they are in close proximity and generate signal.
Tau target (equal mixture of each construct at 300 nM) was prepared in buffer (Tris-HCl pH 7.4) and was incubated in 96-well plates at room temperature for 4 hours with vehicle control (DMSO) and a dose range of a compound of the disclosure (0.098 uM-50 uM). […] The positive control (non-incubated target) & blank (no tau) were prepared and mixed with beads in bead buffer and the plate was read immediately using the EnVision plate reader (Perkin Elmer).

[2] = target: T1, recombinant human tau 4R2N; assay: Confirmatory Assay (CONFA), SDS-PAGE quantification of tau monomer and oligomers; type: biochemical; conditions: tau target 300 nM, 3 hours at room temperature, compound 0.098 uM-50 uM
Procedure: as §1
CONFA Assay: Confirmatory Assay (CONFA) used as a secondary screen for confirming the mechanism of action of compounds identified as hits using the ALA assay. The assay is performed using a similar procedure as ALA except that it utilizes SDS-PAGE for visualization and quantification of tau monomer and aggregated species (dimer, trimer, tetramer, pentamer, etc.). Only a single construct of tau without epitope tags is necessary, but the assay can use the same target prepared for the ALA assay also.
For the CONFA assay, Tau target (300 nM) was prepared in buffer (Tris-HCl pH 7.4) and was incubated at room temperature for 3 hours with vehicle control (DMSO) and a dose range of a compound of the disclosure (0.098 uM-50 uM). […] AlphaView software (Protein Simple) was used for quantification of tau monomer and oligomers.

insoluble tau aggregates = assay: Reduction of insoluble tau aggregates in the brains of treated htau mice; type: in vivo
Procedure: (§2) Four groups of htau mice (n=25 per group) were treated from 2.5 to 6.5 months of age with 0, 10, 40 and 100 mg/kg of the compound of Example 20 milled into feed. The study was performed independently and blinded. The primary endpoint of the study was reduction of insoluble tau aggregates in the brains of the mice with statistical significance. […] Methods for biochemical analyses of tau used in this study have been previously described (Acker CM et al. Sensitive quantitative assays for tau and phospho-tau in transgenic mouse models. Neurobiol Aging. 2013. 34:338). The results in FIG. 1 show in vivo efficacy of the compound in reducing tau pathology. Levels of insoluble tau in the cortices of htau mice treated with the compound of Example 20 were determined using the pan-tau monoclonal antibody (mAb) DA31. These values were normalized to total tau in the lysates of the cortex of each mouse. Error bars indicate standard error of the mean. The P values of comparisons of the groups treated with 10, 40 or 100 mg/kg of the compound of Example 20 to the control group (white bar, 0 mg/kg) are 0.0503 (horizontal hatch bar, 10 mg/kg), 0.0154 (diagonal hatch bar, 40 mg/kg) and 0.0488 (vertical hatch bar, 100 mg/kg). * indicates P value <0.05.

[3] = Tolerability over the course of the htau mouse study; type: in vivo; conditions: all doses (10, 40, 100 mg/kg in feed), htau mice
Procedure: as §2

| Structure (SMILES) | IC50 [1] | IC50 [2] | reduction of insoluble tau, statistical significance (insoluble tau aggregates; 40 mg/kg and 100 mg/kg doses, male htau mice) | in vivo activity: reduction of insoluble tau aggregates in the brains of treated htau mice (insoluble tau aggregates; FIG. 1 legend) | reduction of insoluble tau (insoluble tau aggregates; htau mice, 10, 40 and 100 mg/kg milled into feed, from 2.5 to 6.5 months of age) | tolerability over the course of the study [3] | toxic effects on weight, behavior or morbidity [3] |
| --- | --- | --- | --- | --- | --- | --- | --- |
| CCc1ccc(-n2c(-c3cccnc3)nc3ccccc3c2=O)cc1O [Ex. 1, 3-(4-Ethyl-3-hydroxyphenyl)-2-(pyridin-3-yl)quinazolin-4(3H)-one] | 1.9 µM | 4.18 µM |  |  |  |  |  |
| Cc1ccc(-n2c(-c3cccnc3)nc3ccccc3c2=O)cc1O [Ex. 20, 3-(4-Methyl-3-Hydroxyphenyl)-2-(Pyridin-3-yl)Quinazolin-4(3H)-One Hydrochloride] |  |  | achieved with statistical significance | achieved with statistical significance | reduced insoluble tau at all doses | well tolerated | did not cause toxic effects on weight, behavior or morbidity |
